{"source": "patent US20140127235A1", "about": "“TARGETING HK alpha FOR CONTROLLING BLOOD PRESSURE AND REGULATING ELECTROLYTE BALANCE” (UNIVERSITY OF FLORIDA RESEARCH FOUNDATION, INC., priority 2011, published 2014)", "origin": "cited, not measured here", "key": {"[1]": {"biological_target": "HKα1-containing H^+,K^+-ATPases (Homo sapiens, UniProt P20648)", "sequence (P20648 whole entry)": "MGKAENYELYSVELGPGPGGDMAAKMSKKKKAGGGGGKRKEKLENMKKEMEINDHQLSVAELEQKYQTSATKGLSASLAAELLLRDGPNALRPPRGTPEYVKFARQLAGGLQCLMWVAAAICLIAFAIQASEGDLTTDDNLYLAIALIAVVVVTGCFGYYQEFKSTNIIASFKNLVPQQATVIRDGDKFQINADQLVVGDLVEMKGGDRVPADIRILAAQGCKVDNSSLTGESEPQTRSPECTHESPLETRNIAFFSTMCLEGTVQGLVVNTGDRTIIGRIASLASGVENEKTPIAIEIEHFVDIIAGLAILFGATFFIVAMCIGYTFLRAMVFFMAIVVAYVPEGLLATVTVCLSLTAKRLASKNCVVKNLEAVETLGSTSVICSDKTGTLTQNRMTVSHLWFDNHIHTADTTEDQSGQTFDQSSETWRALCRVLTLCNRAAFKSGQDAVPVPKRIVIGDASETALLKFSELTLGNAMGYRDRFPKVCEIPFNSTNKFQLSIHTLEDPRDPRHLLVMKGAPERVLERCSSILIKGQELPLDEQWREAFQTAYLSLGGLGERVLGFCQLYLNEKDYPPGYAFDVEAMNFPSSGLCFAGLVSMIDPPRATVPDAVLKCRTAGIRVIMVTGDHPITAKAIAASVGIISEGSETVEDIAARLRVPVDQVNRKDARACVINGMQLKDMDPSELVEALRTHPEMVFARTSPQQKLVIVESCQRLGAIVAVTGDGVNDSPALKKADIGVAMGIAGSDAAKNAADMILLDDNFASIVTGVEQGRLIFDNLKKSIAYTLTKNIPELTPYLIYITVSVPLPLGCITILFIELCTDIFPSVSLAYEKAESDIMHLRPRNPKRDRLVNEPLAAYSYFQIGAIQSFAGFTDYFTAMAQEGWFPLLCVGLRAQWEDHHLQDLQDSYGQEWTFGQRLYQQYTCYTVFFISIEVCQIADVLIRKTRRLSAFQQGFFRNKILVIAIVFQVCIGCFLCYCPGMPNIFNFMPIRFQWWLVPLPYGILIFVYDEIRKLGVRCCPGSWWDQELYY", "sequence (P51164 whole entry partner)": "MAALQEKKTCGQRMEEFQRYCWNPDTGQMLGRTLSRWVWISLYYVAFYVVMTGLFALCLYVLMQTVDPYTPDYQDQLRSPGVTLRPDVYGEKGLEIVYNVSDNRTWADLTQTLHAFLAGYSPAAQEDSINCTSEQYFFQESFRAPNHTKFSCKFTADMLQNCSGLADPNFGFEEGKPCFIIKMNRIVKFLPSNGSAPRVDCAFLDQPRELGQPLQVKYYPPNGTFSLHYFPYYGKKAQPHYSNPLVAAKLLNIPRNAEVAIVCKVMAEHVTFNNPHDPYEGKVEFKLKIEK", "conditions": "subsequent studies; cited from earlier work"}, "H^+,K^+-ATPase": {"system": "H^+,K^+-ATPase", "conditions": "rats, seven days low, normal or high aldosterone levels, normal and high K+ diets; cited from earlier work"}, "HKa2 mRNA": {"system": "HKa2 mRNA", "conditions": "progesterone alone (Elabida et al., 2011); cited from earlier work"}}, "data": [{"molecule": "Cc1nc2c(OCc3ccccc3)cccn2c1CC#N", "note": "[Schering 28080]", "values": [{"measurement": "H+,K+-ATPase isoform inhibited", "setting": "[1]", "value": "only inhibit the HKα1-containing H^+,K^+-ATPases"}]}, {"molecule": "C[C@]12CCC(=O)C=C1CC[C@@H]1[C@@H]2[C@@H](O)C[C@]2(C=O)[C@@H](C(=O)CO)CC[C@@H]12", "note": "[aldosterone]", "values": [{"measurement": "effect on Schering 28080-sensitive ATPase activity", "setting": "H^+,K^+-ATPase", "value": "did not significantly affect"}]}, {"molecule": "CC(=O)[C@H]1CC[C@H]2[C@@H]3CCC4=CC(=O)CC[C@]4(C)[C@H]3CC[C@]12C", "note": "[progesterone]", "values": [{"measurement": "effect on renal HKa2 mRNA expression", "setting": "HKa2 mRNA", "value": "stimulated"}]}]}
